Laboratory results: patent US12139481B2, “Compositions comprising macrocycle derivatives incorporating bridged macrocycles and methods of producing and using same” (Southwestern Oklahoma State University, priority 2015, dated 2024)

What was measured:
[1] = tested on: Cryptococcus neoformans ATCC 90113; assay: Antimicrobial microdilution assay against Cryptococcus neoformans (modified CLSI/NCCLS, optical density); format: cell-based; settings: for X more potent than Amphotericin B: C. neoformans, ratio of molar IC50 to Amphotericin B; for C. neoformans IC50 / IC50: in vitro, C. neoformans ATCC 90113; for IC50: read-out: C. neoformans IC50 (mol/L)
In short: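 Broth microdilution (modified CLSI) in RPMI pH 6.0, samples serially diluted in 20% DMSO/saline and tested in duplicate, growth followed by OD630 before and after incubation. MFC is the lowest concentration giving no growth when 5 μL from clear wells is plated on agar.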

[2] = tested on: L. donovani promastigotes; assay: Antileishmanial Alamar Blue assay on promastigotes; format: cell-based, Leishmania donovani; settings: for X more potent than Pentamidine: L. donovani, ratio of molar IC50 to Pentamidine; for L. donovani IC50 / IC50: promastigotes, 48 hours, Alamar Blue; for IC50: read-out: L. donavani IC50
Procedure: Methods: The compounds were screened in vitro against the promastigote forms of the leishmania parasites employing the Alamar Blue assay as discussed below.
Antileishmanial activity of the compounds was tested in vitro against a culture of L. donovani promastigotes, grown in RPMI 1640 medium supplemented with 10% fetal calf serum (FCS, Gibco Chem. Co., Grand Island, NY) at 26° C. A 3-day-old culture was diluted to 5×10^5 promastigotes/mL. Drug dilutions (50-3.1 μg/mL) were prepared directly in cell suspension in 96-well plates. Plates were incubated at 26° C. for 48 hours, and growth of leishmania promastigotes was determined by Alamar Blue assay. Standard fluorescence was measured on a FLUOstar® Galaxy plate reader (BMG Lab Technologies, Ortenberg, Germany) at an excitation wavelength of 544 nm and emission wavelength of 590 nm. Pentamidine and amphotericin B were used as the standard antileishmanial agents. Percent growth was calculated and plotted versus test concentration for computing the IC50 values.

[3] = tested on: Staphylococcus aureus ATCC 29213; assay: Antibacterial broth dilution assay against S. aureus (modified CLSI); format: cell-based; settings: for S. aureus IC50 / IC50: in vitro; for IC50: converted with molecular weight; for X more potent than ciprofloxacen: molar IC50 ratio versus ciprofloxacen
Procedure: (§1) General Experimental Procedures. All organisms were obtained from the American Type Culture Collection (Manassas, VA) and include the fungi Candida albicans ATCC 90028, C. glabrata ATCC 90030, C. krusei ATCC 6258, and Cryptococcus neoformans ATCC 90113, and the bacteria Staphylococcus aureus ATCC 29213 and methicillin-resistant S. aureus ATCC 33591 (MRS). All organisms were tested using modified versions of the CLSI (formerly NCCLS) methods. For all organisms, optical density was used to monitor growth (NCCLS, Reference Method for Broth Dilution Antifungal Susceptibility Testing of Yeasts; Approved Standard M27-A2. National Committee on Clinical Laboratory Standards, 2002 22 (15); and NCCLS, Methods for Dilution Antimicrobial Susceptibility Tests for Bacteria that Grow Aerobically; Approved Standard, Seventh Edition M7-A7. National Committee on Clinical Laboratory Standards, 2006. 26(2)).
(§2) Samples (dissolved in DMSO) were serially-diluted in 20% DMSO/saline and transferred (10 μL) in duplicate to 96 well flat bottom microplates. Inocula were prepared by correcting the OD630 of microbe suspensions in incubation broth [RPMI 1640/0.2% dextrose/0.03% glutamine/MOPS @ pH 6.0 (Cellgro) for Candida spp., Sabouraud Dextrose for C. neoformans, and cation-adjusted Mueller-Hinton (Difco) @ pH 7.3 for Staphylococcus spp. to afford an assay volume of […] and final target inocula of: Candida spp. and C. neoformans: 1.5×10^3, and Staphylococcus spp.: 5.0×10^5 CFU/ml. Final sample test concentrations were 1/100th the DMSO stock concentration. […] All organisms were read at either 530 nm using the Biotek Powerwave XS plate reader (Bio-Tek Instruments, Vermont) prior to and after incubation: Candida spp. at 35° C. for 46-50 h, Staphylococcus spp. at 35° C. for 16-20 h, and C. neoformans at 35° C. for 70-74 h. IC50s (concentrations that afford 50% inhibition relative to controls) were calculated using XLfit 4.2 software (IDBS, Alameda, CA) using fit model 201. The MIC is defined as the lowest test concentration that allows no detectable growth. Minimum fungicidal or bactericidal concentrations were determined by removing 5 μl from each clear (or blue) well, transferring to fresh media, and incubating as previously mentioned. The MFC/MBC is defined as the lowest test concentration that kills the organism (allows no growth).
(§3) Primary Analysis. Samples were tested in duplicate at one test concentration (50 μg/mL), and percent inhibitions were calculated relative to blank and growth controls. Samples showing 50% inhibition in at least one test organism were selected for dose response (Secondary) studies.
(§4) Secondary Analysis. Extracts from the Primary Assay, and first-run pure compounds and column fractions were tested in duplicate at 3 test concentrations (5-fold dilutions). Samples dissolved to 20 mg/mL in DMSO were tested at 200, 40, and 8 μg/mL. Samples dissolved to 2 mg/mL in DMSO were tested at 20, 4, and 0.8 μg/mL.

[4] = tested on: C. glabrata ATCC 90030; assay: Antifungal broth dilution assay against C. glabrata (modified CLSI); format: cell-based, Candida glabrata; settings: for C. glabrata IC50 / IC50: in vitro; for IC50: converted with molecular weight; for X more potent than Amphotericin B: molar IC50 ratio versus amphotericin B
Procedure: as §1, §2, §3, §4

| Compound | X more potent than Amphotericin B [1] | C. neoformans IC50 [1] [µg/mL] | IC50 [1] [µM] | X more potent than Pentamidine [2] | L. donovani IC50 [2] [µg/mL] | IC50 [2] [µM] | S. aureus IC50 [3] [µg/mL] | IC50 [3] [µM] | X more potent than ciprofloxacen [3] | C. glabrata IC50 [4] [µg/mL] | IC50 [4] [µM] | X more potent than Amphotericin B [4] |
| --- | --- | --- | --- | --- | --- | --- | --- | --- | --- | --- | --- | --- |
| Clc1cc(CN2CCN3CCN(CCN(Cc4ccc(CN5CCN6CCN(CC5)CCN(Cc5cc(Cl)nc(Cl)c5)CC6)cc4)CC3)CC2)cc(Cl)n1 [PW111A, p-dcp2-CB-cyclens] | 4.88 | 0.040 | 0.0488 | 0.34 | 12.89 | 15.7 | 5.530 | 6.75 | 0.04 | – | – | – |
| [Co2(p-SB-cyclam-cyclen)(OAc)2][PF6]2 [CMB016A] | 0.16 | 1.570 | 1.49 | 0.17 | 33.81 | 32.1 | – | – | – | 1.100 | 1.04 | 1.36 |
| CC(=O)[O-].CC(=O)[O-].[Cu+2].c1ccc(CN2CCCN3CCCN(CCCN(Cc4ccccc4)CC3)CC2)cc1 [DJD20, Cu(Bn2PBCyclam)(OAc)2] | 0.05 | 3.130 | 5.2 | 0.22 | 14.65 | 24.3 | 6.880 | 11.4 | 0.02 | – | – | – |
| C1CNCCN2CCCNCCN(C1)CCC2.CC(=O)[O-].F[P-](F)(F)(F)(F)F.F[P-](F)(F)(F)(F)F.O.[Co+2].[NH4+] [SLK38B, [Co(H2PBCyclam)(OAc)]PF6•NH4PF6•H2O] | 0.03 | 6.230 | 9.1 | – | – | – | – | – | – | 0.375 | 0.548 | 2.59 |
| C1CNCCN2CCCNCCN(C1)CCC2 [DJD27, H2PBCyclam] | 0.03 | 1.830 | 7.61 | – | – | – | – | – | – | 3.380 | 14.1 | 0.10 |
| [Co2(m-SB-cyclam-cyclen)(OAc)2][PF6]4•H2O [CMB032] | 0.41 | ≤ 0.800 | 0.588 | – | – | – | – | – | – | 1.310 | 0.963 | 1.47 |
| [Cu2(m-cyclam-homocyclen)(OAc)1.5][PF6]2.5 [AW051A] | 0.23 | 1.172 | 1.02 | – | – | – | – | – | – | 7.253 | 6.32 | 0.22 |
| [Zn2(m-cyclam-homocyclen)(OAc)2][PF6]2 [AW052B] | 0.23 | 1.150 | 1.04 | 0.33 | 17.60 | 15.9 | 6.580 | 5.94 | 0.05 | – | – | – |
| CC(=O)[O-].CC(=O)[O-].CN1CCCN2CCN(CCCN(Cc3ccc(CN4CCCN5CCN(C)CCCN(CC5)CC4)cc3)CC2)CC1.F[P-](F)(F)(F)(F)F.F[P-](F)(F)(F)(F)F.[Zn+2].[Zn+2] [KS34, [Zn2(p-CB-cyclams)(OAc)2](PF6)2] | 0.41 | 0.650 | – | 0.25 | 23.49 | – | – | – | – | 15.760 | – | 0.10 |
| [Ni2(p-CB-cyclam-cyclen)(OAc)2][PF6]2 [CMB028] | 0.19 | 1.330 | 1.23 | 0.19 | 30.69 | 28.4 | – | – | – | 4.490 | 4.16 | 0.34 |
| [m-(BMBCyclams)]Br2 [DJD05] | 0.05 | 3.250 | 4.56 | 0.21 | 18.18 | 25.5 | – | – | – | 4.213 | 5.91 | 0.24 |
| CC(=O)[O-].CC(=O)[O-].F[P-](F)(F)(F)(F)F.F[P-](F)(F)(F)(F)F.O.O.[Co+2].[Co+2].c1cc(CN2CCNCCN3CCN(CC3)CC2)cc(CN2CCNCCN3CCN(CC3)CC2)c1 [OB36, [Co2(m-SB-Cyclens)(OAc)2][PF6]2•2H2O] | 0.32 | ≤ 0.800 | 0.754 | – | – | – | – | – | – | 3.720 | 3.51 | 0.40 |
| [Co3(tris-CB-Cyclams)(OAc)1.51][PF6]4.5 [BNS24] | 0.52 | ≤ 0.800 | 0.456 | – | – | – | – | – | – | 1.490 | 0.85 | 1.67 |
| CC(=O)[O-].F[P-](F)(F)(F)(F)F.O.[Co+2].c1ccc(CN2CCCNCCN(Cc3ccccc3)CCCNCC2)cc1 [BME07, [Co(Bn2Cyclam)(OAc)PF6•H2O] | 0.02 | 6.980 | 10.6 | – | – | – | – | – | – | 0.597 | 0.903 | 1.57 |
| CN1CCN2CCN(CC1)CCN(Cc1ccccn1)CC2 [KRW32, Me1Pic1-CB-cyclen] | 0.01 | 5.490 | 18.1 | – | – | – | – | – | – | 14.360 | 47.3 | 0.03 |
| O.[Cl][Fe-2]([Cl])([Cl])[Cl].[Fe+2].c1ccc(CN2CCCN3CCCN(CCCN(Cc4ccccc4)CC3)CC2)cc1 [BME09, [Fe(Bn2PBCyclam)][FeCl4]•H2O] | 0.15 | 1.070 | 1.55 | 0.26 | 14.10 | 20.4 | 5.130 | 7.41 | 0.04 | – | – | – |
| [p-(DCP-BMBCyclams)]Br4 [SLK26] | – | – | – | 0.43 | 14.76 | 12.4 | – | – | – | 5.705 | 4.78 | 0.30 |
| [Ni2(p-CB-Homocyclens)(OAc)2][PF6]2 [TJH378A] | 0.03 | 7.540 | 6.98 | – | – | – | – | – | – | 5.150 | 4.77 | 0.30 |
